Patent US20080311126A1, “Antisense Oligonucleotides Directed to Ribonucleotide Reducatase R2 and Uses Thereof in Combination Therapies for the Treatment of Cancer” (Genesense Technologies, Inc, priority 2004, published 2008)
Oligonucleotides are written 5' to 3', each unit as a sugar letter and its base; * is a phosphorothioate linkage, no mark a phosphodiester; rarer units and linkages stand in square brackets, end groups in braces. Plain capitals give the bases only. d = 2'-deoxy (DNA)

Tests used:
Format in all cases: cell-based, human
[1] = system: T24 bladder cell carcinoma; assay: Relative colony forming efficiency (Example 17, Table 13); details: averages of 2-8 determinations
How it was run: (§1)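 Phosphorothioate antisense oligodeoxynucleotides, at 0.2 μM unless otherwise indicated, were applied with 2.5 μg DOTMA/DOPE (Lipofectin) for 4 h. Colonies stained with methylene blue and scored, with viability sometimes checked by trypan blue exclusion. Values given as % inhibition of colony formation relative to lipofectin-only controls.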

[2] = system: HCT116 colon cell carcinoma; assay: as above; details: averages of 2-8 determinations
How it was run: as §1

[3] = system: T-47D breast ductal carcinoma; assay: as above; details: averages of 2-8 determinations
How it was run: as §1

[4] = system: HepG2 hepatocellular carcinoma; assay: as above; details: averages of 2-8 determinations
How it was run: as §1

[5] = system: PC-3 prostrate cell adenocarcinoma; assay: as above; details: averages of 2-8 determinations
How it was run: as §1

[6] = system: MDA-MB-231 breast cell adenocarcinoma; assay: as above; details: averages of 2-8 determinations
How it was run: as §1

[7] = system: MDA PaCa-2 pancreatic cell carcinoma; assay: as above; details: MIA PaCa-2 pancreatic cell carcinoma; averages of 2-8 determinations
How it was run: as §1

[8] = system: A549 lung cell carcinoma; assay: as above; details: averages of 2-8 determinations
How it was run: as §1

[9] = system: Hela S3 cells; assay: Relative colony forming efficiency, lipofectin +/- oligonucleotide 4 hours; details: Hela S3 cervix carcinoma cells; averages of 2-8 determinations
Protocol: Colony forming efficiency was determined using standard protocols. Briefly, the cells were cultured for 24 hours at 37° C. in growth medium with 10% fetal bovine serum. The cells were washed in 5 ml phosphate buffered saline, pH 7.2, once prior to lipofectin +/−oligonucleotide treatment.
The test oligonucleotides were added to cell cultures in the presence of 2.5 μg of DOTMA/DOPE (Lipofectin; Life Technologies, Inc.) for four hours. The oligonucleotide was tested at 0.2 μM unless otherwise indicated. Controls were the cultures treated with lipofectin but without the oligonucleotide. After 4 hours the medium containing the oligonucleotide was removed and washed with 5 ml of growth medium. The cells were then cultured in growth medium containing 10% fetal bovine serum for seven to ten days. Surviving cells were visualized by methylene blue staining, and colonies were scored. In some experiments cell aliquots were removed from the culture and viability was determined using the trypan blue exclusion test. Results were analyzed as percent of surviving cells compared to control cells.
AS-II-336-20 was tested for the ability to inhibit the proliferation of human tumour cells (Hela). Hela S3 cells (American Type Culture Collection, Rockville, Md., ATCC), and a Hela cell line (Hela 1 mM) previously selected for resistance to the antitumour agent, hydroxyurea, were tested (see results in Table 11). Two experiments were undertaken with Hela S3 cells. […] The same experiment was repeated with the Hela 1 mM cell line and with varying concentrations of the antisense construct AS-II-336-20 (see results in Table 11) with similar results, […] was an effective concentration for inhibiting colony formation.
To test the antisense effects of many of these sequences as phosphorthioate deoxyribonucleotides, they were examined in relative colony forming experiments conducted as described in Example 16 with a series of human tumour cell lines. The results (shown as % inhibition of colony forming ability) obtained with cancer cells derived from the bladder, breast, lung, colon, pancreas, prostate, liver and cervix, are shown in Table 13. The specific cell lines employed are as follows:
T24=bladder cell carcinoma HCT116=colon cell carcinoma A549=lung cell carcinoma MDA-MB-231=breast cell adenocarcinoma […]=pancreatic cell carcinoma PC-3=prostrate cell adenocarcinoma HepG2=hepatocellular carcinoma HeLaS3=cells isolated from a carcinoma of the cervix T-47D=breast ductal carcinoma H596=lung adenosquamous carcinoma cells Colo320=colon cell adenocarcinoma

Sequence	Reduced relative colony forming efficiency, T24 (% inhibition of colony forming ability) [1] [%]	Reduced relative colony forming efficiency, HCT116 (% inhibition of colony forming ability) [2] [%]	Reduced relative colony forming efficiency, T-47D (% inhibition of colony forming ability) [3] [%]	Reduced relative colony forming efficiency, HepG2 (% inhibition of colony forming ability) [4] [%]	Reduced relative colony forming efficiency, PC-3 (% inhibition of colony forming ability) [5] [%]	Reduced relative colony forming efficiency, MDA-MB-231 (% inhibition of colony forming ability) [6] [%]	Reduced relative colony forming efficiency, MIA PaCa-2 (% inhibition of colony forming ability) [7] [%]	Reduced relative colony forming efficiency, A549 (% inhibition of colony forming ability) [8] [%]	Reduced relative colony forming efficiency, Hela S3 (% inhibition of colony forming ability) [9] [%]
GCACGGGCGACC (antisense dG*dC*dA*dC*dG*dG*dG*dC*dG*dA*dC*dC) [AS-II-127-12]	50.63	54.34	37.54	71.75	79.56	38.46	53.34	69.33	86.45
GACACAAGGCATCGTTTCAA (antisense dG*dA*dC*dA*dC*dA*dA*dG*dG*dC*dA*dT*dC*dG*dT*dT*dT*dC*dA*dA) [AS-II-784-20]	87.23	78.09	85.39	80.89	88.99	33.92	62.04	83.8	81.48
AAAAATCAGCCAAGTAAGGG (antisense dA*dA*dA*dA*dA*dT*dC*dA*dG*dC*dC*dA*dA*dG*dT*dA*dA*dG*dG*dG) [AS-II-1381-20]	71.37	89.48	93.62	62.34	75	44.41	73.77	86.02	80.53
TTCTCTTACTCTCTCCTCCG (antisense dT*dT*dC*dT*dC*dT*dT*dA*dC*dT*dC*dT*dC*dT*dC*dC*dT*dC*dC*dG) [AS-II-1048-20]	40.32	42.63	–	77.56	84.38	66.88	33.4	65.67	39.19
GTCTCTCCTCCGATGGTTTG [AS-II-1040-20]	59.49	70.08	64.76	77.78	40.08	–	43.52	85.82	71.87
